The values that follow come from paper PMC5824344 (ACS Chemical Biology, 2017).

In experiment [1] the test system is GluI and GluII in human hepatoma Huh7.5 cells. Kind of experiment: Free oligosaccharide (FOS) assay in Huh7.5 cells. The following applies: naive Huh7.5 cells, 48 h, 50 µm. The class given is cell-based. How it is done: 5 Cell and Virus Culture and Assays
5.1 Culture of Cell Lines
The human hepatoma cell line Huh7.5 (Apath, LLC) was cultured in Dulbecco’s modiﬁed Eagle medium (DMEM) with Glutamax (Gibco) supplemented with 100 µg mL−1 strepto-mycin (Sigma), 100 U mL−1 penicillin (Sigma), 100 µm MEM non-essential amino acids (Gibco) and 10% (volume/volume, v/v) heat-inactivated (56 ◦C, 30 min) fetal calf serum (FCS, Seralab). The human monocytic cell line HL60 (ATCC), human T lymphocyte cell line Jurkat (ATCC), and human B lymphocyte cell line Raji (ATCC) were each maintained in RPMI 1640 media with Glutamax (Gibco) supplemented with 100 µg mL−1 streptomycin, 100 U mL−1 penicillin and 10% (v/v) FCS. The monkey kidney cell line LLC-MK2 (a gift from Armed Forces Research Institute of Medical Sciences, Thailand) was cultured in M199 media (Gibco) supplemented with 2 mm l-glutamine, 100 µg mL−1 streptomycin, 100 U mL−1 penicillin and 20% (v/v) FCS. Subsequently, these are referred to as growth media for each cell line. Unless otherwise indicated, all cell incubations were carried out at 37 ◦C and 5% CO2. […]
Cell viability was measured using the CellTiter 96 R© AQueous One Solution Cell Prolifera-tion MTA (3-(4,5-dimethylthiazol-2-yl)-5-(3-carboxymethoxyphenyl)-2-(4-sulfophenyl)-2H - […]
After a further one to two hour incubation, the absorbance at 490 nm was measured on a Molecular Devices SpectraMax M5 microplate reader. […]
Absorbances were averaged across replicates, and corrected for background by subtracting the value for media-only wells. Each drug treatment was then evaluated as a percentage of untreated cells. […]
FOS analysis was carried out as described previously. […] Before purifying the FOS, each sample was analyzed for protein content using the modiﬁed Bradford assay. […] The labelled glycans were then analyzed by normal phase high performance liquid chromatography. Retention times and peak area were used to identify and quantify glycans, respectively, by comparison to standards of known identity and molar quantity. FOS quantities were normalized to protein levels.

For another experiment, the target named is T1, Rat intestinal sucrase (Rattus norvegicus, UniProt P23739).
T1 construct: from tissue; host or cells: intestine of male Wistar rats, partially purified extract
Kind of experiment: Inhibition of rat intestinal sucrase (natural substrate, glucose release). The class given is biochemical. To be noted: for IC50: isolated enzyme in vitro, mean of three measurements, read-out: IC50, α-Glucosidase, Rat intestinal sucrase.

In general, IC50 refers to the midpoint of a concentration-inhibition curve.

Molecules are shown by their SMILES.

T1 sequence (P23739 whole entry): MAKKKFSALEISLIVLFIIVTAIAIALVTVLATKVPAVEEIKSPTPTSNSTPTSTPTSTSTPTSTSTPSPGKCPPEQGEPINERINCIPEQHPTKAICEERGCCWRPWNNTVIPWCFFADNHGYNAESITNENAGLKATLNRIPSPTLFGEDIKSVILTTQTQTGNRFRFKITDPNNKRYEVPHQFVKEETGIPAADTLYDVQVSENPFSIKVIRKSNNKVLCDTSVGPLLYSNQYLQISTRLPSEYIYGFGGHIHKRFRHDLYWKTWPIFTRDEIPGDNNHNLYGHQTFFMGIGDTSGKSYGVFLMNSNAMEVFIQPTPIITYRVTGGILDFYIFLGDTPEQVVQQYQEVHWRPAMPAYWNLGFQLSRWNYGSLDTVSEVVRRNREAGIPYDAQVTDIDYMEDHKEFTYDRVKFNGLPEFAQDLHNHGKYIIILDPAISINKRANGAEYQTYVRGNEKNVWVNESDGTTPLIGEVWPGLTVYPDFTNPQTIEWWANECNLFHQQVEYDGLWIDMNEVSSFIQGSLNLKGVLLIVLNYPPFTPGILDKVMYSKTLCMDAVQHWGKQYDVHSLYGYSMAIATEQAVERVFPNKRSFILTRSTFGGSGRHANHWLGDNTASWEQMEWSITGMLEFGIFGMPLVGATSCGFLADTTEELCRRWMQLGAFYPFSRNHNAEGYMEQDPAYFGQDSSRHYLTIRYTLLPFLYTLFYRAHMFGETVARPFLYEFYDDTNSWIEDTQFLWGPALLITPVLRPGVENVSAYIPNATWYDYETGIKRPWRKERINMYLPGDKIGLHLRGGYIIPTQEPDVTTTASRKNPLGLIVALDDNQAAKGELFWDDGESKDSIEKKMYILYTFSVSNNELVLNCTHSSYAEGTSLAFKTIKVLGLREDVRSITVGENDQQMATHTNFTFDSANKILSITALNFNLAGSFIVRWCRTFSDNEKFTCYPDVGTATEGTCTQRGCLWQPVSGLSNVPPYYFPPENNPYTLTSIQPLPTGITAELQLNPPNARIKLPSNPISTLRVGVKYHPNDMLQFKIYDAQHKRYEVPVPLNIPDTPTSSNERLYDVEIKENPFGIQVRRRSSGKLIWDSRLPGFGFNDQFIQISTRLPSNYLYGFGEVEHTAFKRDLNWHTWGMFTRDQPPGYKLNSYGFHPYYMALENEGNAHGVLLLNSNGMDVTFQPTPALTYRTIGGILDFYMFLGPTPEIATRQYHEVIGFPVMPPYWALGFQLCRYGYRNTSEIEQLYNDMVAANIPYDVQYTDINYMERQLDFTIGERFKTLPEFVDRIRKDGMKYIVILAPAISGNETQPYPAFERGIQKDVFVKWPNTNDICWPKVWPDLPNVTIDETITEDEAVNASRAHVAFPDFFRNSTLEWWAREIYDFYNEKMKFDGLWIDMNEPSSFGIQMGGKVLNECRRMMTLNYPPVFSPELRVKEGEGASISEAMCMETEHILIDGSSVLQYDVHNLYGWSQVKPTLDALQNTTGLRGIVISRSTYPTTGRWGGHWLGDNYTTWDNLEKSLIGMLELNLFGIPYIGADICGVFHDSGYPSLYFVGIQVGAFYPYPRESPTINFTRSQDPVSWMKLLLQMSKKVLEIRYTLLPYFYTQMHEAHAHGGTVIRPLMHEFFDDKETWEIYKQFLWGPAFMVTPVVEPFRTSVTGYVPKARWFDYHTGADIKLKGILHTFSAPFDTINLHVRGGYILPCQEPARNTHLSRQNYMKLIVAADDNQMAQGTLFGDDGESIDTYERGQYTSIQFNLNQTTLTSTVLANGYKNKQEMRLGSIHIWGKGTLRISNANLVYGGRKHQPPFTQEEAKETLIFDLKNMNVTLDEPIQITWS

On to `CCCCN1CC(O)C(O)C(O)C1CO` [Compound 2, N-butyl-D-1-deoxynojirimycin, reference compound], for which the “glucosylated free oligosaccharides (FOS) observed after treatment” value in experiment [1] is on record as “inhibits both enzymes”. The IC50 on Rat intestinal sucrase is 430 nM.

On to `Cc1c(C)c2c(c(C)c1OCCCCCN1CC(O)C(O)C(O)C1CO)CCC(C)(CCCC(C)CCCC(C)CCCC(C)C)O2` (stereo not drawn) [Compound 4, 5′-tocopheroxypentyl-DNJ], for which the “glucosylated free oligosaccharides (FOS) observed after treatment” value in experiment [1] is “no glucosylated FOS were observed”; in experiment [1] (listed as ToP-DNJ 4), “no glucosylated FOS were detected”. Besides, the inhibition at 50 µM at Rat intestinal sucrase (50 μM, read-out: inhibition of intestinal sucrase at the maximum tested concentration) is < 50%. Further, the IC50 on Rat intestinal sucrase is > 50000 nM.
